According to US8313920B2, “High-throughput assay for evaluating dipeptidyl peptidase I activity” (Janssen Research & Development, LLC, priority 2008, dated 2012):
Residues, ends and D or L forms follow the SMILES beside them. No end group written: not given here. *: point of attachment. AMC = Cc1cc(=O)oc2cc(N*)ccc12

Legend:
Assay type in all cases: biochemical
[1] = target: T1, dipeptidyl peptidase I (DPPI) (Homo sapiens, UniProt P53634); experiment: DPPI assay with label-free 20-mer peptide substrate, mass spectrometry (RapidFire, SIM), screening of test compounds; conditions: for IC50: 20-mer peptide substrate (SEQ ID NO:1) 20 μM, about 2 nM DPPI, 27° C., 60 min, semi-log plot analysis, read-out: IC50 of DPPI inhibition; for effect on DPPI activity in the reaction with the 20-mer substrate: 20-mer peptide substrate, mass spectrometry
T1 construct: made in house; host or cells: Hi5 insect cells (baculovirus)
Experimental: (§1) FIG. 2. Evaluating the DPPI-modulating activity with two test compounds using a dipeptide substrate (A) and using a 20-mer peptide substrate (B). (A) About 0.4 nM of DPP1 and about 10 μM of dipeptide substrate GR-α-methylcoumarin were used in a rate-based format and monitored with fluorescence at EM=460 nm and EX=380 nm. (B) About 2 nM of DPPI and 20 μM of the 20-mer peptide substrate […] (SEQ ID NO:1) were used in a reaction and monitored with a mass spectrometry system. 2-(piperidin-1-ylcarbonyl)phenol is represented by solid squares and 2-(piperidin-1-ylcarbonyl)aniline is represented by solid circles. R^2-values is >0.95.
When a candidate compound is identified, the IC50 of the DPPI inhibition by the candidate compound is calculated using the formula (II):
[formula] wherein • Si is net substrate turnover signal of sample • So is net substrate turnover signal of positive control • Smin is net am signal of negative control • I is concentration of a candidate compound wherein a positive control is a reaction without any test compound and a negative control is a reaction without DPPI or substrate.
About 2 nM of DPPI was incubated with about 0.5, 1, 2, 4, 8, 16, 32, 64, 90, 128, 150 μM of the 20-mer substrate in the reaction buffer of 50 mM HEPES (pH 7.0), 100 mM NaCl, 0.005% Tween-20, and 2 mM of DTT or GSH. The reaction was incubated at about 27° C. and terminated with about 1/10 volume of 2% trifluoroacetic acid at multiple time points at 0, 2, 5, 10, 20, 30, 45, 60, 75, 90, and 120 mins. An aliquot of about 10 μl of the quenched reaction was used for detecting the substrate turnover by RapidFire (BioTrove, Woburn, Mass.) with a C4 cartridge. The reaction was loaded onto the cartridge, which was equilibrated with the stationary phase of 0.1% formic acid+0.02% TFA and developed with the mobile phase of 90% MeCN+0.1% formic acid+0.02% TFA at about 1 ml per min. The 20-mer substrate at SIM 1112 amu (atomic mass unit) and the corresponding 18-mer product at SIM 1019 were monitored using Agilent 1100 series LCMSD (Santa Clara, Calif.) in the positive ion mode monitoring.
Two fragment compounds, 2-(piperidin-1-ylcarbonyl)phenol and 2-(piperidin-1-ylcarbonyl)aniline were evaluated for their activity to modulate DPPI. A dilution series of the compounds of about 0.1 mM to about 100 mM was made in 100% DMSO. About one μl of a test compound and about 8 μl of about 3.75 nM DDP-1 were added to a 384-well polypropylene plate (Greiner Bio-One North America Inc., Monroe, N.C.). The proteolytic reaction was initiated by the addition of about 1 μl of 200 μM substrate. […] An aliquot of about 10 μl of the quenched reaction was analyzed by RapidFire™ as described in Examples 3 and 4.

[2] = target: T1, dipeptidyl peptidase I (DPPI); experiment: Rate-based DPPI assay with dipeptide substrate GR-alpha-methylcoumarin, fluorescence, test compounds; conditions: dipeptide substrate GR-α-methylcoumarin about 10 μM, about 0.4 nM DPPI, compound up to 10 mM
Experimental: as §1
The DPPI activity was analyzed with either the dipeptide substrate, Gly-Arg, labeled with alpha-methylcoumarin (AMC), or the 20-mer peptide substrate of SEQ ID NO: 1. […] The fluorescence (Ex=380 nm, EM=460 nm) was monitored continuously from about 0 to 10 mins, using a Safire II (Tecan, Switzerland) to determine the DPPI activity. […]
Two fragment compounds, 2-(piperidin-1-ylcarbonyl)phenol and 2-(piperidin-1-ylcarbonyl)aniline were evaluated for their activity to modulate DPPI. […] An aliquot of about 10 μl of the quenched reaction was analyzed by RapidFire™ as described in Examples 3 and 4.

[3] = target: T1, dipeptidyl peptidase I (DPPI); experiment: Initial velocity analysis of DPPI with the dipeptide substrate Gly-Arg-AMC, fluorescence; conditions: dipeptide GR-AMC as DPPI substrate, about 0.4 nM DPPI, pH 7.0
Experimental: (§2) FIG. 1. Initial velocity analysis for DPP1 kinetic constant in reaction with a 20-mer substrate (A) and a dipeptide substrate (B). (A) About 2 nM of DPPI was used in the reaction with the 20-mer substrate of […] (SEQ ID NO:1) and the reaction was monitored using a mass spectrometry system. (B) About 0.4 nM of DPP1 was used in the reaction with the dipeptide substrate of GR-α-methylcoumarin and the reaction was monitored using a rate-based format monitoring fluorescence at EM=460 nm and EX=380 nm. Initial rates are taken from kinetic data where less than 7% substrate turnover was achieved.
(§3) Once the rate of the substrate turnover under the initial velocity condition, the kinetic constants for DPPI and the peptide substrate are calculated using the following formula (I): Y=VMAX((X+Et+KM)−((((Et+X+KM)^2)−(4XEt))^0.5))/(2Et) wherein • Y is concentration of substrate turnover • X is substrate concentration • Et is DPPI concentration • KM is substrate concentration at ½ VMAX • VMAX is substrate turnover at substrate saturation
The DPPI activity was analyzed with either the dipeptide substrate, Gly-Arg, labeled with alpha-methylcoumarin (AMC), or the 20-mer peptide substrate of SEQ ID NO: 1. For the dipeptide substrate, about 0.4 nM of DPPI was incubated with about 1, 2, 5, 10, 25, 50, 100, 150, 300, 600 μM of the dipeptide substrate in 10 ul of reaction buffer of 50 mM Hepes (pH 7.0), 100 mM NaCl, 0.005% Tween-20, and 2 mM of DTT or GSH. The fluorescence (Ex=380 nm, EM=460 nm) was monitored continuously from about 0 to 10 mins, using a Safire II (Tecan, Switzerland) to determine the DPPI activity. The condition for the 20-mer peptide substrate was the same as described above.

[4] = target: T1, dipeptidyl peptidase I (DPPI); experiment: Initial velocity analysis of DPPI with the 20-mer substrate, mass spectrometry; conditions: 20-mer as DPPI substrate, about 2 nM DPPI, pH 7.0, about 27° C.
Experimental: as §2, §3
About 2 nM of DPPI was incubated with about 0.5, 1, 2, 4, 8, 16, 32, 64, 90, 128, 150 μM of the 20-mer substrate in the reaction buffer of 50 mM HEPES (pH 7.0), 100 mM NaCl, 0.005% Tween-20, and 2 mM of DTT or GSH. […]

T1 sequence (P53634 25-134 limits assumed, species assumed): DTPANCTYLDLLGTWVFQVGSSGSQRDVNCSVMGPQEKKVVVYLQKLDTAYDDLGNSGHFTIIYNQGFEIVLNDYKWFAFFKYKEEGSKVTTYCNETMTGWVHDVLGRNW
T1 sequence (P53634 231-394 limits assumed, species assumed): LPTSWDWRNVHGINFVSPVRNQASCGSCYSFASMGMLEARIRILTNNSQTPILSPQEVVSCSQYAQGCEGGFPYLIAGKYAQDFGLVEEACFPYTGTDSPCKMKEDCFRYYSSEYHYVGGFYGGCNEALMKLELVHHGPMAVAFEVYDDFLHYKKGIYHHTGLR
T1 sequence (P53634 395-463 limits assumed, species assumed): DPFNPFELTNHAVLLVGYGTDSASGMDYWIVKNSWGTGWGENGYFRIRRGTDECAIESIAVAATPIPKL

IC50 [1] [µM] | Km [4] [µM] | Molecule | effect on DPPI activity in the reaction with the 20-mer substrate [1] | effect on DPPI activity in the reaction with the dipeptide substrate [2] | 2nd order rate constant [3] [M⁻¹ s⁻¹] | Km [3] [µM] | kcat [3] [Mmin^−1]
~1000 |  | Nc1ccccc1C(=O)N1CCCCC1 [2-(piperidin-1-ylcarbonyl)aniline] | modulated the DPPI activity in a concentration dependent manner | neither compound, even in high concentration of 10 mM, affected the DPPI activity |  |  | 
~100 |  | O=C(c1ccccc1O)N1CCCCC1 [2-(piperidin-1-ylcarbonyl)phenol] | modulated the DPPI activity in a concentration dependent manner | neither compound, even in high concentration of 10 mM, affected the DPPI activity |  |  | 
 |  | Cc1cc(=O)oc2cc(NC(=O)[C@H](CCCNC(=N)N)NC(=O)CN)ccc12 [Dipeptide, Gly-Arg, labeled with alpha-methylcoumarin (AMC)] (H-Gly-Arg-{AMC}) |  |  | 1.48e+06 | 64 | 5667
 | 62 | GEIIGGTECKPHSRPYMAYL [20-mer] |  |  |  |  | 
